Measured values taken from PubChem BioAssay AID489027 (Sanford-Burnham Center for Chemical Genomics, 2010).
Calls of active or inactive are those of the source. How the calls were made is not given here.

Each compound was assayed against UPR counterscreen luciferase reporter, luminescence (assay: luciferase reporter activation, UPR counterscreen line – cell-based, luminescence, counter-screen for adaptive UPR activator project, dose response (AID 489027)).

| SMILES | EC50 |
| --- | --- |
| COc1ccc(-c2csc(NC(=S)NC(=O)/C=C/c3ccccc3)n2)cc1Br | inactive |
| Cc1ccc(C(C(=O)NCc2ccco2)N(C(=O)CNC(=O)c2cccs2)c2c(C)cc(C)cc2C)cc1 (centres undefined) | inactive |
| CCOC(=O)C1=C(C)N=C2c3ccccc3C(=O)C2C1c1ccc(C)cc1 (centres undefined) | > 80 µM (inactive) |
| O=C(Nc1ccc(O)c(-c2nc3ccccc3s2)c1)c1cc(=O)c2ccccc2o1 | > 80 µM (inactive) |
| COc1cc(NC(=O)c2cccs2)ccc1NC(=O)c1cc2ccccc2o1 | > 80 µM (inactive) |
| O=C(/C=C/c1ccco1)NC(=S)Nc1ccc(O)c(-c2nc3ccccc3s2)c1 | 11 µM |
| O=[N+]([O-])c1ccc(Cl)c(-c2ccc(/C=N/c3c(-c4ccco4)nc4ccccn34)o2)c1 | inactive |
| COc1cccc(/C=N/Nc2ccc([N+](=O)[O-])cn2)c1O | > 80 µM (inactive) |
| CC1CCN(Cc2c(C(=O)N/N=C/c3ccc(C(F)(F)F)cc3)nnn2-c2nonc2N)CC1 | > 80 µM (inactive) |
| C/C(=N\Nc1ncnc2sc(C)c(C)c12)c1ccccn1 | 2.6 µM |
| CCOc1cc(/C=N/NC(=O)Cn2nc([N+](=O)[O-])cc2C)cc(Br)c1OCc1ccccc1C | > 80 µM (inactive) |
| Cn1c(/C=C/c2ccc(Cl)cc2Cl)c([N+](=O)[O-])c(=O)n(C)c1=O | 12.8 µM |
| O=C(COC(=O)c1ccc2[nH]c3c(c2c1)CCCC3)Nc1ccccc1Cl | > 80 µM (inactive) |
| O=c1[nH]c(CSc2ncnc3sc(-c4ccccc4)cc23)nc2ccccc12 | > 80 µM (inactive) |
| COc1ccc(-c2nc3scc(-c4ccc(OC)c(OC)c4)c3c(=O)o2)cc1 | > 80 µM (inactive) |
| Cc1ccc2nc(SCC(=O)Nc3cc(C(F)(F)F)ccc3N3CCOCC3)[nH]c2c1 | inactive |
| Cc1cc(NC(=O)c2cc(-c3ccccn3)nc3ccc(Br)cc23)no1 | > 80 µM (inactive) |
| COc1cc(NC(=O)c2cncc(-c3ccc(C#N)cc3)c2)cc(C(=O)Nc2cccc(C(F)(F)F)c2)c1 | inactive |
| CCOc1ccc(-c2nnc(SCC(=O)Nc3ccc4c(c3)c3ccccc3n4CC)n2N)cc1 | 14.6 µM |
| Cc1ccc(/C=C/C(=O)c2cc(Br)ccc2OC(=O)c2ccco2)cc1 | inactive |
| CCN(CC)c1ccc(C(=O)OCC(=O)Nc2cc3oc4ccccc4c3cc2OC)cc1 | 20 µM |
| CCOC(=O)c1sc(NC(=S)NC(=O)c2ccccc2)c(C(=O)OCC)c1C | inactive |
| Oc1ccc(CN2CCC(Cc3ccccc3)CC2)c2cccnc12 | 5.55 µM |
| CCCCN1C(=O)C(=O)c2cc(Cl)ccc21 | inactive |

| SMILES | EC50 |
| --- | --- |
| CCC(=O)Nc1cccc(C(=O)/C=C/c2ccc(F)cc2)c1 | 12.1 µM |
| Oc1cccc(-c2nc3c4c(ncn3n2)-c2ccccc2CC42CCCC2)c1 | 18.6 µM |
| C#CCn1c(=NC(=O)c2ccc(Cl)s2)sc2cccc(OC)c21 | > 80 µM (inactive) |
| CCOC(=O)c1c(NC(=O)c2cc(C)on2)c2cc([N+](=O)[O-])ccc2n1C | > 80 µM (inactive) |
| Cc1c(Cl)cccc1Nc1nc(NCCO)c2ccccc2n1 | 17 µM |
| COc1ccc(Cn2c(SCc3cc(C)ccc3C)nc3cc(OC)c(OC)cc3c2=N)cc1 | > 80 µM (inactive) |
| CCCCNc1c(-c2ccc(-c3ccc(C(C)=O)cc3)c(OC)c2)nc2cc(C)ccn12 | > 80 µM (inactive) |
| COc1ccc(-c2nnc(SCC(=O)Nc3sc4c(c3C#N)CCCC4)n2-c2ccccc2)cc1 | 16.1 µM |
| Oc1ccc(Br)cc1/C=N/Nc1ccccn1 | > 80 µM (inactive) |
| Cc1cc(SCC(=O)c2ccc(O)c(O)c2)n2nc(C)c(-c3ccccc3)c2n1 | > 80 µM (inactive) |
| CCOc1ccc(C(=O)Nc2cc(-c3nc4ccccc4[nH]3)ccc2Cl)cc1[N+](=O)[O-] | 17.7 µM |
| COc1ccccc1C(=O)NC(=S)NNC(=O)c1sc2ccccc2c1Cl | inactive |
| Cc1nn(-c2ccccc2)c(C)c1/C=N/NC(=O)CSc1nc2ccccc2c(=O)n1-c1ccc(Br)cc1 | 7.19 µM |
| CCCCCCCCCCn1c2c(c(=N)c3c1CCC3)CCC2 | 13.5 µM |
| CCOc1cc(/C=N/NC(N)=S)cc(Br)c1OCc1ccccc1C | 12.5 µM |
| COc1ccc(-c2ccc3c(c2)S(=O)(=O)c2cccc(C(=O)NCCOc4ccccc4Cl)c2C3=O)cc1OC | > 80 µM (inactive) |
| COc1cc(SC#N)ccc1N=Cc1c(C)[nH]n(-c2ccc(C)c(C)c2)c1=O | 17.4 µM |
| CN1Cc2c(N3CCOCC3)nc3sc(C(=O)c4ccc(Br)cc4)c(N)c3c2CC1(C)C | 18.7 µM |
| C/C(CCC12CC3CC(CC(C3)C1)C2)=N\NC(N)=S | inactive |
| Cc1ccc2nc(NC(=O)c3ccc(-c4nc5ccccc5s4)s3)sc2c1 | 11 µM |
| N=c1n(CC(=O)c2ccc([N+](=O)[O-])cc2)c2ccccc2n1Cc1ccc(Cl)cc1 | 7.87 µM |
| O=C(NCC1CCCO1)c1nn2c(C(F)(F)F)cc(-c3cc(Br)cs3)nc2c1Br (centres undefined) | > 80 µM (inactive) |
| Clc1ccc(-c2ccc(/C=N/Nc3nncc(-c4ccccc4)n3)o2)cc1 | 13.6 µM |
| O=C(C[C@H]1C[C@H](C(=O)N2CCCCC2)[C@@]2(CCc3ccccc3)c3[nH]c4ccc(Cl)cc4c3CCN2C1=O)NCCC1=CCCCC1 | inactive |

| SMILES | EC50 |
| --- | --- |
| COc1ccc(-c2nn(-c3ccccc3)cc2/C=C/C(=O)OCC(=O)Nc2cccc(C#N)c2)cc1 | > 80 µM (inactive) |
| CCOc1cc(CNC(C)(C)CO)cc(Br)c1OCc1ccc(Cl)cc1Cl | > 80 µM (inactive) |
| Cc1cc(C)c2sc(N(CCCN(C)C)C(=O)c3ccc(S(=O)(=O)N4CCCc5ccccc54)cc3)nc2c1 | > 80 µM (inactive) |
| Nc1cccc(-c2nc3cc(S(=O)(=O)c4ccc5oc(-c6cccc(N)c6)nc5c4)ccc3o2)c1 | > 80 µM (inactive) |
| CCCCCCCCCCOC(=O)Cn1c(COc2ccc(C)cc2)[n+](C)c2ccccc21 | > 80 µM (inactive) |
| O=C(Nc1ccc(Br)cc1)c1cc(-c2ccncc2)nc2ccccc12 | 12.7 µM |
| Cc1cc(NC(=O)CSc2nc3sc(C)c(C)c3c(=O)n2C2CCCC2)no1 | > 80 µM (inactive) |
| Cc1ccc(-c2nnc(-c3ccc(NC(=O)Cc4cccs4)cc3)o2)cc1 | > 80 µM (inactive) |
| CCC(=O)Nc1ccc(-c2cc(-c3ccccc3)nc(-c3ccc(NC(=O)CC)cc3)n2)cc1 | > 80 µM (inactive) |
| CCOc1ccc(S(=O)(=O)Nc2cccc(C(=O)NCC3(N4CCCCC4)CCCCC3)c2)cc1 | inactive |
| CCc1ccccc1NC(=O)C(CC)Sc1nc2cc3c(cc2c(=O)n1Cc1ccco1)OCO3 (centres undefined) | 11.6 µM |
| Cc1ccccc1OCc1nc(-c2ccc(NC(=O)c3ccc4c(c3)OCO4)cc2)no1 | inactive |
| Cc1ccc(N2CCN(c3ccc(NCc4nc5ccccc5n4C)cc3)CC2)cc1 | inactive |
| COc1ccc(/C=N/Nc2nnc(-c3ccccc3)c(=O)[nH]2)cc1 | 15.6 µM |
| CC(C)c1ccc(/C=C/C(=O)Nc2nc3ccc([N+](=O)[O-])cc3s2)cc1 | inactive |
| CCc1ccc(-c2cc(C(F)(F)F)n3nc(C(=O)Nc4cnn(Cc5ccc(C)cc5)c4)cc3n2)s1 | 3.35 µM |
| Cc1cc(C)c2c(c1)/C(=c1/sc3n(c1=O)CN(c1ccccc1)CN=3)C(=O)N2 | 10.5 µM |
| COc1ccc(C(=O)Nc2cccc(/C=C/c3nc4ccccc4c(=O)[nH]3)c2)cc1 | > 80 µM (inactive) |
| CCC(Sc1nnc2c3ccccc3n(CC)c2n1)C(=O)Nc1sc2c(c1C#N)CCCC2 (centres undefined) | inactive |
| CC(C)(C)C(=O)NC(=S)NNC(=O)c1ccc(-c2ccccc2)cc1 | 8.05 µM |
| O=C1NC(=O)C(=Cc2cn(CCOc3ccc4c(c3)OCO4)c3ccccc23)C(=O)N1 | 18.5 µM |
| CCOc1cccc(C(=O)Nc2cccc(-c3nnc(-c4ccc(C)cc4)o3)c2)c1 | 12.1 µM |
| O=c1cc(CN2CCN(c3ccccc3)CC2)c2cc(O)c(-c3ccccc3)cc2o1 | 7 µM |
| Cc1ccc(CN2C(=O)C(=O)c3cc(C)ccc32)cc1 | inactive |

| SMILES | EC50 |
| --- | --- |
| CC1CCN(Cc2c(C(=O)N/N=C/c3ccc(C(C)C)cc3)nnn2-c2nonc2N)CC1 | inactive |
| Cc1ccc(NC(=O)CSc2nc3ccccc3c3nc4ccccc4n23)cc1 | 6.26 µM |
| CCCCC1CCC(C(=O)N(CC(C)C)c2c(N)n(CCCC)c(=O)[nH]c2=O)CC1 (centres undefined) | > 80 µM (inactive) |
| Cc1c(CCOC(=O)C23CC4(C)CC(C)(CC(C)(C4)C2)C3)sc[n+]1CC(=O)c1ccccc1 | > 80 µM (inactive) |
| CN(C)CCCN(C(=O)c1ccc(S(=O)(=O)N2CCc3ccccc3C2)cc1)c1nc2ccc(F)cc2s1 | 8.2 µM |
| Cc1ccc(C(C)C)c(OCc2ccc(C(=O)N/N=C/c3ccc(O)c(O)c3)cc2)c1 | 4.95 µM |
| C#CCn1c(=NC(=O)c2ccc(Br)s2)sc2cccc(OC)c21 | > 80 µM (inactive) |
| Cc1ccc(-c2ccnc(-c3ccc(O)cc3)n2)cc1 | > 80 µM (inactive) |
| Cc1cccc2sc(NC(=O)c3cc(S(=O)(=O)N(C)C)ccc3N3CCCC3)nc12 | 7.43 µM |
| NS(=O)(=O)c1ccc(NC(=O)COC(=O)c2cn(-c3ccccc3)nc2-c2ccc(F)cc2)cc1 | inactive |
| FC(F)(F)c1nc2ccccc2n2c(-c3ccc(Cl)cc3)nnc12 | 13.6 µM |
| CC1(C)C[C@H](O)[C@]2(CO)[C@H](O)C[C@]3(C)C(=CCC4[C@@]5(C)CC[C@H](O)C(C)(C)C5CC[C@]43C)[C@@H]2C1 (some centres undefined) | > 80 µM (inactive) |
| COc1cc(/C=C(\C#N)c2nc3ccccc3[nH]2)cc(Br)c1OCc1ccc(F)cc1 | 15.3 µM |
| Cc1ccc2nsnc2c1NC(=O)c1ccc(-c2cc(Cl)ccc2Cl)o1 | > 80 µM (inactive) |
| Cc1ccc2nc(-c3ccc(NC(=S)NC4CC(C)(C)NC(C)(C)C4)cc3)sc2c1 | 9.04 µM |
| COC(=O)c1c(NC(=O)CC2Nc3ccccc3NC2=O)sc(C)c1C (centres undefined) | inactive |
| COc1ccc(Br)cc1-c1nc2c(c(=O)[nH]c(=O)n2Cc2ccccc2)n1C | > 80 µM (inactive) |
| CCc1ccc(-c2nc(CN3CCC(C(=O)NCCN(CC)c4ccccc4)CC3)c(C)o2)cc1 | > 80 µM (inactive) |
| C=CCn1c(O)c(C2=c3ccccc3=NC2=O)sc1=Nc1ccc(O)cc1 | 18.3 µM |
| COc1ccc(N2CCN(Cc3nc(N)nc(Nc4ccc(C)c(Cl)c4)n3)CC2)cc1 | > 80 µM (inactive) |
| Cc1ccc(NC(=O)c2cc(S(=O)(=O)N(C)C)ccc2N2CCCC2)cc1F | inactive |
| CC1CN(S(=O)(=O)c2ccc(C(=O)Nc3nc(-c4cc5ccccc5o4)cs3)cc2)CC(C)O1 (centres undefined) | 13.2 µM |
